The values below come from publication PMC4277828 (BMC Pharmacology & Toxicology, 2014).

Values joined by “and” are separate entries in the source; they are usually repeats but may differ in a detail not shown here. Equal entries are not always repeated. “Also recorded” adds a separate entry of the source. Where two headings read alike, the source gives them in different places. Marks after values point to notes of the source that are not given here.

Series [1] can be described thus: Steady-state plasma pharmacokinetics of rifabutin and 25-O-desacetylrifabutin with and without LPV/r-based ART (three-period crossover, LC/MS/MS, non-compartmental analysis). As to conditions: for AUC(0-t): human, plasma, oral, median (interquartile range), n = 14.
Details of series [2]: method as in PMID 15844071. The conditions noted are these: cited from earlier work.
Series [3] can be described thus: Tolerability and safety of rifabutin and LPV/r: clinical and laboratory adverse events (DAIDS grading).
A further series is described as follows: clinical. The conditions noted are these: human, plasma, oral, 300 mg.
The conditions of series [4]: human, in vivo.
For series [5] the following is noted: in vivo, 300 mg.
A short description of series [6]: Steady-state plasma pharmacokinetics of lopinavir given with two rifabutin doses (LCMS/MS, non-compartmental analysis). As to conditions: for AUC(0-t): human, plasma, oral, Median (Interquartile range), 14 patients.
[7] abbreviates: RBT dose at time of AE 150 mg daily (with LPV/r ART), listed as RBT.
The mark [8] stands for this setting: RBT dose at time of AE 150 mg tiw (with LPV/r ART), listed as RBT.
Setting [9] is: sixteen patients, all rifabutin doses.

With `CO[C@H]1/C=C/O[C@@]2(C)Oc3c(C)c(O)c4c(c3C2=O)C2=NC3(CCN(CC(C)C)CC3)NC2=C(NC(=O)/C(C)=C\C=C\[C@H](C)[C@H](O)[C@@H](C)[C@@H](O)[C@@H](C)[C@H](OC(C)=O)[C@@H]1C)C4=O` [Rifabutin, rifabutin], the results for the “GMR (90% CI) of Cmin24h” value in series [1] (RBT 150 mg daily (with LPV/r ART) with RBT 300 mg daily), in series [1] (RBT 150 mg tiw (with LPV/r ART) with RBT 300 mg daily) and in series [1] (RBT 150 mg tiw with RBT 150 mg daily (both with LPV/r ART)) were 2.7 (2.2 – 3.2), 1.2 (1.0 – 1.4) and 0.5 (0.4 – 0.5), respectively. In addition, the “Increase in AUC0–24” value in series [1] (daily dose of 150 mg compared to the three times a week dose, both with LPV/r) is “more than two fold increase”. The AUC(0-t) in series [1] (150 mg, AUC0–24, Rifabutin 150 mg daily plus LPV/r, steady state) was 4770 ng·h/mL; in series [1] (150 mg, AUC0–24, Rifabutin 150 mg tiw plus LPV/r, steady state), 2310 ng·h/mL; in series [1] (150 mg, AUC0–48, Rifabutin 150 mg daily plus LPV/r, calculated by 2X AUC0–24), 9530 ng·h/mL; in series [1] (300 mg, AUC0–24, Rifabutin 300 mg daily without LPV/r, steady state) it was 3050 ng·h/mL; in series [1] (300 mg, AUC0–48, Rifabutin 300 mg daily without LPV/r, calculated by 2X AUC0–24), 6110 ng·h/mL. The figures for the “Patients with AUC0–24 values >4.5 μg.h/mL” value in series [1] (rifabutin 150 mg daily with LPV/r) and in series [1] (rifabutin tiw dosing with LPV/r) were 71% and 14%, respectively. The “Patients with AUC0-24 < 4.5 μg.h/mL” value in series [1] (tiw rifabutin arm (150 mg tiw with LPV/r)) is reported as 86%. The results for the “Patients who relapsed or failed therapy that developed ARR” value in series [2] (TB-HIV co-infected patients with AUC0–24 < 4.5 μg.h/mL) and in series [2] (TB-HIV co-infected patients with AUC above the threshold of 4.5 μg.h/mL) were 83% and 33%, respectively. The “AE (grade 3 laboratory adverse event, individual subject)” value in series [3] (setting [7]) is “Neutropenia; also recorded: AST increased; also recorded: Amylase increased”; in series [3] (setting [8]), “AST increased; also recorded: Amylase increased; also recorded: Neutropenia”; in series [3] (RBT dose at time of AE 300 mg daily) it was “Neutropenia”. Also, the “Days on RBT at grade 3 laboratory AE (individual subject)” value in series [3] (setting [7]) was 53 days and 77 days and 106 days and 113 days and 57 days; in series [3] (setting [8]), 96 days and 119 days and 112 days; in series [3] (RBT dose at time of AE 300 mg daily, listed as RBT), 29 days and 27 days and 28 days. Besides, the “Grade 4 laboratory toxicities / events” value is listed as “no grade 4 laboratory toxicities” in series [3] (all doses, sixteen patients) and “no grade 4 laboratory events” in series [3] (all doses, sixteen patients, listed as rifabutin). Also, the Tolerability result in series [3] (all doses, sixteen patients) is recorded as “well tolerated”. Besides, the “Association between plasma concentration and adverse events such as neutropenia or elevated transaminases” value in series [3] (human, in vivo) is recorded as “unable to show a significant association”. Besides, the Uveitis entry in series [3] (patient taking rifabutin 300 mg daily, after 1 month of rifabutin, prior to / coinciding with start of ART) is recorded as “One case of uveitis (grade 4); also recorded: Grade 2 uveitis occurred in one patient”. In addition, the Serious adverse events result in series [3] (sixteen patients) is “two serious adverse events (bacterial meningitis and pyelonephritis), both considered unrelated to rifabutin”. Besides, the “Grade 3 elevations in transaminases and amylase, number” value in series [3] (setting [9]) was 2. Besides, the “Grade 3 neutropenia, number of occasions” value in series [3] (setting [9]) is 7 occasions. Besides, the “Grade 3 neutropenia, number of patients” value in series [3] (setting [9]) was 4 patients and 5 patients. This compound also yielded a Cmax in “clinical” of 292 ng/mL.
For the compound 25-O-desacetylrifabutin [d-RBT], in series [4], the “Association between plasma concentration and adverse events such as neutropenia or elevated transaminases” value is given as “unable to show a significant association”. Further, the “AUC0–48” value in series [5] is 546.6 (471.4-688.2)^* ng.h/mL.
For the compound `Cc1cccc(C)c1OCC(=O)N[C@@H](Cc1ccccc1)[C@@H](O)C[C@H](Cc1ccccc1)NC(=O)[C@H](C(C)C)N1CCCNC1=O` [lopinavir], the “Median lopinavir trough (C0) concentrations versus recommended lower limit for ART-naïve patients” value in series [6] (both rifabutin doses) is > 1 µg. For the same compound, the AUC(0-t) is 160000 ng·h/mL in series [6] (AUC0–12, RBT 150 mg daily plus LPV/r (400/100 mg)) and 140000 ng·h/mL in series [6] (AUC0–12, RBT 150 mg tiw plus LPV/r (400/100 mg)). Further, the “Differences in AUC0–12 and Cmax between the two doses of rifabutin” value in series [6] (rifabutin 150 mg daily versus 150 mg tiw) is listed as “not significant”.

As usually defined, the AUC(0-t) is the area under the concentration-time curve up to a stated or last time point. One may read the Cmax as the maximum level reached in the sampled fluid or tissue.
